The supplement of paper PMC10307832

Legend:
Test in all cases: relative viability (nuclei count vs DMSO), 5 days (fraction); higher = more cells survive
[1] = compound: CCOC(=O)CCNc1cc(N2CCc3ccccc3CC2)nc(-c2ccccn2)n1 [GSK-J4] + N=C(N)NC(=N)NCCc1ccccc1 [Phenformin] (partner 250 µM)
How it was run: (§1)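 A single step with final 0.05% Triton X-100, 1% formaldehyde and 1 ug/ml Hoechst fixed the cells and stained nuclei 5 days after treatment. Lung cancer cell lines in 1536-well plates had been treated by pin tool the day after seeding with one drug alone or a fixed anchor-drug dose plus five library-drug doses (not always all listed) in √10 steps, and nuclei were counted on 4× images. Relative viability is the ratio of nuclei in treated wells to nuclei in vehicle wells, taken as the median of duplicate plates.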

[2] = compound: CN1CCC(CC1)OC2=CC(=C(C=C2)NC3=NC=C4C(=N3)N(C(=O)N4C)C5CCCC5)OC [AZ3146] + CC1(C)CCC(c2ccc(Cl)cc2)=C(CN2CCN(c3ccc(C(=O)NS(=O)(=O)c4ccc(N[C@H](CCN5CCOCC5)CSc5ccccc5)c(S(=O)(=O)C(F)(F)F)c4)cc3)CC2)C1 [Navitoclax] (partner 0.5 µM)
How it was run: as §1

[3] = compound: CCOC(=O)CCNc1cc(N2CCc3ccccc3CC2)nc(-c2ccccn2)n1 [GSK-J4] + CC(=O)Nc1cccc(-n2c(=O)n(C3CC3)c(=O)c3c(Nc4ccc(I)cc4F)n(C)c(=O)c(C)c32)c1 [Trametinib] (partner 0.02 µM)
How it was run: as §1

[4] = compound: CCOC(=O)CCNc1cc(N2CCc3ccccc3CC2)nc(-c2ccccn2)n1 [GSK-J4] + Nc1ncn([C@H]2C[C@H](O)[C@@H](CO)O2)c(=O)n1 [Decitabine] (partner 2 µM)
How it was run: as §1

Cell Line | relative viability ([1]; first compound 0.5 µM) | relative viability ([1]; first compound 1.581 µM) | relative viability ([1]; first compound 5 µM) | relative viability ([1]; first compound 15.81 µM) | relative viability ([1]; first compound 50 µM) | relative viability ([2]; first compound 0.08 µM) | relative viability ([2]; first compound 0.253 µM) | relative viability ([2]; first compound 0.8 µM) | relative viability ([2]; first compound 2.53 µM) | relative viability ([2]; first compound 8 µM) | relative viability ([3]; first compound 0.5 µM) | relative viability ([3]; first compound 5 µM) | relative viability ([3]; first compound 15.81 µM) | relative viability ([3]; first compound 50 µM) | relative viability ([4]; first compound 0.5 µM) | relative viability ([4]; first compound 5 µM) | relative viability ([4]; first compound 15.81 µM) | relative viability ([4]; first compound 50 µM) | relative viability ([3]; first compound 1.581 µM) | relative viability ([4]; first compound 1.581 µM)
NCI-H1623 | 0.597 | 0.457 | 0.623 | 0.398 | 0.545 |  |  |  |  |  |  |  |  |  |  |  |  |  |  | 
ChaGo-K-1 | 0.488 | 0.49 | 0.438 | 0.475 | 0.422 | 1 | 1 | 0.897 | 0.996 | 0.672 | 0.934 | 0.939 | 0.841 | 0.808 | 0.535 | 0.557 | 0.479 | 0.471 |  | 
LCLC-97TM1 | 0.369 | 0.327 | 0.397 | 0.339 | 0.264 |  |  | 0.541 | 0.361 | 0.544 | 0.182 | 0.168 | 0.128 | 0.156 | 0.213 | 0.225 | 0.262 | 0.215 | 0.155 | 0.237
COR-L 105 | 0.408 | 0.395 | 0.381 | 0.475 | 0.578 | 0.805 | 0.712 | 0.745 | 0.791 | 0.711 | 0.467 | 0.46 | 0.458 | 0.451 | 0.723 | 0.507 | 0.644 | 0.654 |  | 
NCI-H1666 | 0.512 | 0.515 | 0.605 | 0.486 | 0.464 | 0.859 | 0.805 | 0.951 | 1.05 | 0.81 | 0.843 | 0.923 | 0.704 | 0.77 | 0.747 | 0.84 | 0.666 | 0.674 | 0.695 | 0.726
CAL-12T | 0.702 | 0.549 | 0.532 | 0.554 | 0.42 | 1.21 | 1.28 | 1.24 | 1.32 | 1.17 | 0.337 | 0.424 | 0.288 | 0.254 |  |  |  |  | 0.314 | 
NCI-H1299 |  |  |  |  |  | 1.02 | 1.02 | 1.06 | 1 | 1.01 |  |  |  |  |  |  |  |  |  | 
ABC-1 | 0.232 | 0.259 | 0.245 | 0.217 | 0.201 |  |  |  |  |  |  |  |  |  | 1 | 1.05 | 0.883 | 0.795 |  | 1.16
NCI-H358 | 0.443 | 0.264 | 0.349 | 0.266 | 0.255 |  |  |  |  |  | 0.145 | 0.157 | 0.118 | 0.131 | 0.206 | 0.216 | 0.177 | 0.159 |  | 
